Experimental data as given in patent US12329754B2 (priority 2018, dated 2025).
Counter-ions that a name gives are not always drawn. Like-named read-outs stand apart in the source and are kept apart here.

Experiments:
[1] = system: LASV-GP/HIV-luc pseudovirus; experiment: organism not typed; assay type: cell-based; details: read-out: EC50 against the Lassa virus entering the host
[2] = system: MARV-GP/HIV-luc pseudovirus; experiment: microbe, parasite or virus in culture; assay type: cell-based; details: read-out: EC50 against the Marburg virus entering the host
[3] = system: EBOV-Zaire GP/HIV-luc pseudovirus; experiment: organism not typed; assay type: cell-based, Zaire ebolavirus; details: for EC50: HEK-293T, read-out: half-maximum effect concentration (EC50) against EBOV
[4] = system: EBOV-Zaire GP/HIV-luc pseudovirus; assay type: cell-based, Zaire ebolavirus

SMILES	EC50 [1] [µM]	EC50 [2] [µM]	inhibition rate on the EBOV-Zaire GP/HIV-luc pseudovirus [3]	EC50 ([3]; 48 h) [µM]	EC50 [3] [µM]	effect on cell activity (CCK-8, OD 450 nm) (293T cells)	inhibition effect on the virus when added at 6 h (TOA) [4]
COc1cc2c3cc1Oc1c(OC)c(OC)cc4c1[C@@H](Cc1ccc(O)c(c1)Oc1ccc(cc1)C[C@@H]3N(C)CC2)N(C)CC4 [berbamine dihydrochloride]	2.64	0.99	over 80%	0.49	0.49	no significant effect	
O=C1Nc2ccc(Cl)cc2[C@@](C#CC2CC2)(C(F)(F)F)O1 [efavirenz]							still had an inhibition effect
